Assay results from US7888386B2, “3-(phenoxyphenylmethyl)pyrrolidine compounds” (Theravance, Inc., priority 2008, dated 2011).

Target: T1, hNET (Homo sapiens, UniProt P23975)
T1 construct: expressed in transfected cells; host or cells: HEK-293 derived cell line, stably transfected; membrane preparation
Assay: hNET binding assay (Assay 1)
Details: hNET binding assay; read-out: NET pKi (converted)
Method: (§1) Membrane radioligand binding assays were used to measure competitive inhibition of labeled ligand (^3H-citalopram or ^3H-nisoxetine or ^3H-WIN35428) binding to membranes prepared from cells expressing the respective human recombinant transporter (hSERT or hNET or hDAT) in order to determine the pKi values of test compounds at the transporters.
(§2) Recombinant human embryonic kidney (HEK-293) derived cell lines stably transfected with hSERT or hNET, respectively, were grown in DMEM medium supplemented with 10% dialyzed FBS (for hSERT) or FBS (for hNET), 100 μg/ml penicillin, 100 μg/ml streptomycin, 2 mM L-glutamine and 250 μg/ml of the aminoglycoside antibiotic G418, in a 5% CO2 humidified incubator at 37° C. When cultures reached 80% confluence, the cells were washed thoroughly in PBS (without Ca^2+ and Mg^2+) and lifted with 5 mM EDTA in PBS. Cells were pelleted by centrifugation, resuspended in lysis buffer (10 mM Tris-HCl, pH 7.5 containing 1 mM EDTA), homogenized, pelleted by centrifugation, then resuspended in 50 mM Tris-HCl, pH 7.5 and 10% sucrose at 4° C. Protein concentration of the membrane suspension was determined using a Bio-Rad Bradford Protein Assay kit. Membranes were snap frozen and stored at −80° C. Chinese hamster ovary membranes expressing hDAT (CHO-DAT) were purchased from PerkinElmer and stored at −80° C.
(§3) Stock solutions (10 mM in DMSO) of test compound were prepared and serial dilutions made using Dilution Buffer (50 mM Tris-HCl, 120 mM NaCl, 5 mM KCl, pH 7.4, 0.1% BSA, 400 μM ascorbic acid).
(§4) Following a 60 minute incubation at 22° C. (or a period sufficient to reach equilibrium), the membranes were harvested by rapid filtration over a 96-well UniFilter GF/B plate, pretreated with 0.3% polyethyleneimine, and washed 6 times with 300 μl wash buffer (50 mM Tris-HCl, 0.9% NaCl, pH 7.5 at 4° C.). Plates were dried overnight at room temperature, ˜45 μl of MicroScint™-20 (Perkin Elmer) added and bound radioactivity quantitated via liquid scintillation spectroscopy. Competitive inhibition curves and saturation isotherms were analyzed using GraphPad Prism Software package (GraphPad Software, Inc., San Diego, Calif.). IC50 values were generated from concentration response curves using the Sigmoidal Dose Response (variable slope) algorithm in Prism GraphPad.

T1 sequence (P23975 whole entry): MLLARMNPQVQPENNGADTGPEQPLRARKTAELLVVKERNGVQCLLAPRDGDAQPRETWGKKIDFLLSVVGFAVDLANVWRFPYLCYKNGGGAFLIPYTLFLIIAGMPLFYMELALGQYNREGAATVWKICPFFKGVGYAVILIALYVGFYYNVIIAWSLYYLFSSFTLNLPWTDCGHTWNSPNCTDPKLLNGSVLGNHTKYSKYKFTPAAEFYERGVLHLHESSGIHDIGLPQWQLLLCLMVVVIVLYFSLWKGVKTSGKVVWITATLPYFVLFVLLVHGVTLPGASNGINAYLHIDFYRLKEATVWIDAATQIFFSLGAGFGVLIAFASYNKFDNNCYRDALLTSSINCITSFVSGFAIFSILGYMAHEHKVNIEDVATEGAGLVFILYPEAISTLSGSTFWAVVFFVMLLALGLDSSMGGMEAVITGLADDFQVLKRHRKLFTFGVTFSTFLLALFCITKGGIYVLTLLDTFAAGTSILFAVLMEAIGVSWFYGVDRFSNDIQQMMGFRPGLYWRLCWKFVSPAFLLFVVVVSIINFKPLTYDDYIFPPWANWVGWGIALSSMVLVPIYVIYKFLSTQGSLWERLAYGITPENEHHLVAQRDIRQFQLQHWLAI

SMILES	Ki
Fc1ccc(F)c(OC(c2ccccc2)C2CCNC2)c1 (racemic) [29-1]	2 nM

Same assay, conditions: hNET binding; read-out: NET pKi (converted)

SMILES	Ki
Clc1cc(Cl)c(Cl)c(O[C@H](c2ccccc2Cl)[C@@H]2CCNC2)c1 (racemic) [39-4]	3.98 nM
Cc1cc(F)cc([C@@H](Oc2c(Cl)ccc(C)c2Cl)[C@@H]2CCNC2)c1 (racemic) [41-23]	1.58 nM
Cc1ccc(Cl)c(O[C@@H](c2cc(F)cc(F)c2)[C@@H]2CCNC2)c1Cl (racemic) [41-25]	6.31 nM
Cc1ccc(Cl)c(OC(c2cc(F)cc(F)c2)C2CCNC2)c1Cl (racemic) [41-26]	0.501 nM

Same assay, conditions: membranes of HEK-293 cells expressing hNET, 1.0 nM 3H-nisoxetine; read-out: NET pKi (converted)

SMILES	Ki
Cc1cccc([C@@H](Oc2ccccc2Cl)[C@@H]2CCNC2)c1 (racemic) [Compound 20-6]	3.98 nM
c1ccc(OC(c2ccccc2)C2CCNC2)cc1 (stereo not drawn) [Ex. 17-1, 3-(Phenoxyphenylmethyl)pyrrolidine]	6.31 nM

Target: T2, hSERT (Homo sapiens, UniProt P31645)
T2 construct: expressed in transfected cells; host or cells: HEK-293 derived cell line, stably transfected; membrane preparation
T2 sequence (P31645 whole entry): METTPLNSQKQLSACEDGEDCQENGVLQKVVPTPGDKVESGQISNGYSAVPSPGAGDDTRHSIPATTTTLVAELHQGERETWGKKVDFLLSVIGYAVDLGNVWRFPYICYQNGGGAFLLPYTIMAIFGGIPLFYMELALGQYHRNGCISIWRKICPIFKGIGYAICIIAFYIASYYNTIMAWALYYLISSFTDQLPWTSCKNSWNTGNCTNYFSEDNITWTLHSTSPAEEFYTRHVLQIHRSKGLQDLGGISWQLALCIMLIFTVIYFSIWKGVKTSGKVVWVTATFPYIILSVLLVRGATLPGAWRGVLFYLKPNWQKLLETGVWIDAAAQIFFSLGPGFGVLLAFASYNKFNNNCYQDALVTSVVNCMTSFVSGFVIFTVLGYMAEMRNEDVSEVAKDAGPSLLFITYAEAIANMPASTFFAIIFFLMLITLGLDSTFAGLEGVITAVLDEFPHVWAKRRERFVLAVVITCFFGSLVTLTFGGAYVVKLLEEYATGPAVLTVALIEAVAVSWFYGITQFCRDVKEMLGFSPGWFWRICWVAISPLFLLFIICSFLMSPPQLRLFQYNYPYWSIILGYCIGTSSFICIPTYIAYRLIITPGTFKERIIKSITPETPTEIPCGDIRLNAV
Assay: hSERT binding assay (Assay 1)
Details: ratio of SERT Ki to NET Ki (binding)
Method: as §1, §2, §3, §4

SMILES	SERT Ki/NET Ki
Clc1cc(Cl)c(Cl)c(O[C@H](c2ccccc2Cl)[C@@H]2CCNC2)c1 (racemic) [39-4]	0.1
Cc1cc(F)cc([C@@H](Oc2c(Cl)ccc(C)c2Cl)[C@@H]2CCNC2)c1 (racemic) [41-23]	0.5
Cc1ccc(Cl)c(O[C@@H](c2cc(F)cc(F)c2)[C@@H]2CCNC2)c1Cl (racemic) [41-25]	0.2
Cc1ccc(Cl)c(OC(c2cc(F)cc(F)c2)C2CCNC2)c1Cl (racemic) [41-26]	1.3
Fc1cc(F)cc(C(Oc2cc(Cl)cc(Cl)c2)C2CCNC2)c1 (stereo not drawn) [35-16]	0.5
Cc1ccc(Cl)c(OC(c2ccccc2)C2CCNC2)c1Cl (stereo not drawn) [40-31]	0.6
Cc1ccc(Cl)c(OC(c2ccccc2)C2CCNC2)c1Cl (stereo not drawn) [40-32]	1
Cc1ccc(Cl)c(OC(c2ccccc2)C2CCNC2)c1Cl (stereo not drawn) [40-33]	3.2
Cc1ccc(Cl)c(OC(c2ccccc2)C2CCNC2)c1Cl (stereo not drawn) [40-34]	0.1
Fc1cc(F)cc(C(Oc2c(Cl)ccc(Cl)c2Cl)C2CCNC2)c1 (stereo not drawn) [41-13]	2
Cc1cc(F)cc(C(Oc2c(Cl)ccc(C)c2Cl)C2CCNC2)c1 (stereo not drawn) [41-22]	0.3
NC(=O)c1cccc(C(Oc2c(F)ccc(F)c2Cl)C2CCNC2)c1 (stereo not drawn) [41-38]	0.1

Same assay, conditions: ratio of SERT Ki to NET Ki from binding assays

SMILES	SERT Ki/NET Ki
Fc1ccc(F)c(OC(c2ccccc2)C2CCNC2)c1 (racemic) [29-1]	4
FC(F)(F)c1cc(Cl)ccc1OC(c1ccccc1)C1CCNC1 (stereo not drawn) [27-21]	0.6
Cc1ccc(OC(c2ccccc2)C2CCNC2)c([N+](=O)[O-])c1 (stereo not drawn) [27-33]	1.6
Fc1ccc(Cl)c(O[C@H](c2ccccc2)[C@@H]2CCNC2)c1 [29-13]	0.2
Cc1ccc(Cl)cc1OC(c1ccccc1)C1CCNC1 (stereo not drawn) [29-18]	0.1
COc1ccc(C)cc1OC(c1ccccc1)C1CCNC1 (stereo not drawn) [29-27]	2
Cc1cccc(Cl)c1OC(c1ccccc1)C1CCNC1 (stereo not drawn) [31-13]	0.6
Fc1cc(F)cc(C(Oc2cc(Cl)ccc2F)C2CCNC2)c1 (stereo not drawn) [32-2]	2.5
COc1ccc(F)c(OC(c2ccccc2Cl)C2CCNC2)c1 (stereo not drawn) [32-3]	4
Clc1ccc(Cl)c(OC(c2ccccc2Cl)C2CCNC2)c1 (stereo not drawn) [32-7]	0.6
Fc1ccc(C(Oc2cc(Cl)ccc2Cl)C2CCNC2)cc1 (stereo not drawn) [32-11]	4
COc1cccc(C(Oc2cc(Cl)ccc2Cl)C2CCNC2)c1 (stereo not drawn) [32-13]	0.3
N#Cc1cccc(C(Oc2cc(Cl)ccc2Cl)C2CCNC2)c1 (stereo not drawn) [32-15]	13
NC(=O)c1cccc([C@H](Oc2cc(Cl)ccc2Cl)[C@H]2CCNC2)c1 [32-17]	2
Fc1cc(F)cc(C(Oc2cc(Cl)ccc2Cl)C2CCNC2)c1 (stereo not drawn) [32-24]	7.9
Fc1cc(F)cc([C@H](Oc2cc(Cl)ccc2Cl)[C@H]2CCNC2)c1 [32-25]	25
Cc1ccc(OC(c2ccccc2)C2CCNC2)cc1F (stereo not drawn) [33-3]	0.3
Fc1cc(Cl)cc(OC(c2ccccc2)C2CCNC2)c1 (stereo not drawn) [34-4]	0.3

Same assay, conditions: ratio of binding Ki at SERT to Ki at NET; the tables list only compounds with a ratio in the range 0.1-100

SMILES	SERT Ki/NET Ki
N#Cc1cccc([C@H](Oc2c(F)cc(F)cc2F)[C@H]2CCNC2)c1 [45-3]	3.2
Fc1c(F)c(F)c(O[C@H](c2ccccc2)[C@@H]2CCNC2)c(F)c1F [49-2]	0.2

Same assay, conditions: ratio of binding Ki at hSERT to Ki at hNET, rounded off to the nearest tenth

SMILES	SERT Ki/NET Ki
Cc1cccc([C@@H](Oc2ccccc2Cl)[C@@H]2CCNC2)c1 (racemic) [Compound 20-6]	1.6
c1ccc(COc2ccccc2OC(c2ccccc2)C2CCNC2)cc1 (stereo not drawn) [Compound 19-23]	3.2
Fc1c(Cl)cccc1OC(c1ccccc1)C1CCNC1 (stereo not drawn) [Compound 25-4]	5
